Test results as given in paper PMC11218975, “The evolution of antimicrobial peptide resistance in Pseudomonas aeruginosa is severely constrained by random peptide mixtures” (PLOS Biology, 2024).
Where no end group is shown, it is not given here.

Experiments:
[1] = test system: P. aeruginosa 14 strain (PA14), ancestor strain; format: cell-based, Pseudomonas aeruginosa; conditions: ancestral strain PA14; MH broth, 5 × 10^5 CFU/ml, 96-well serial dilution, 24 h, inhibition of growth by at least 90% (OD595); 3 replicate lines per peptide
Method: MIC values were determined following a standard serial dilution protocol, as described elsewhere. Briefly, PA14 cells were grown overnight in MH broth, at 37°C and 200 rpm. Subsequently, cells were diluted 1:100 in MH broth and grown until reaching an optical density at 595 nm (OD595) of 0.1. Then, 100 μl of 5 × 10^5 CFU/ml were inoculated into each well in 96-well plates that contained a serial dilution of AMPs or RPMs. Each plate contained 3 replicate lines per peptide. The MICs were defined as the lowest concentration at which there was inhibition of bacterial growth by at least 90%, after 24 h, by measuring the OD595.
The MIC was determined on 3 occasions: (1) prior to the experiment, to determine the concentration of our focal peptides to be used at the start of the experimental evolution (i.e., MIC of the ancestor strain); (2) at the end of the experimental evolution, detect an increase, or decrease, in the resistance of the experimentally evolved strains to our peptides of interest; (3) to evaluate whether the experimental evolution of a certain treatment was accompanied by an increase, or decrease, in resistance or sensitivity to another antimicrobial (i.e., cross-resistance or collateral-sensitivity).

[2] = test system: PA14 strains evolved in the presence of an AMP/RPM; assay: Fitness cost of evolved strains (growth curves in the absence of AMPs); format: cell-based, Pseudomonas aeruginosa; conditions: growth in MH broth without AMPs, OD595 every 15 min for 24 h, normalised to ancestor; n = 6
Method: Bacterial cells were grown overnight in MH broth and then diluted to an OD595 of 0.1. For each strain, 200 μl of culture were transferred into 96-well plates, with 3 technical replicates. Optical density (OD595) was measured every 15 min for 24 h using an Epoch 2 microplate reader (BioTek). Lag time and Vmax were assessed using the plate reader software (Gen5). The values measured in the experimentally evolved strains were divided by the values of their respective ancestors and expressed as lag time fold-change and Vmax fold-change (see “Statistical analysis” section).
Similarly, we normalised both fitness readouts duration of the lag phase (lag time) and maximum slope of the bacterial growth curve (Vmax) to the readouts of the ancestor of the given evolved strain by dividing the values of the evolved strains to that of their respective ancestors. The resulting variable is a fold-change in Vmax and lag time during experimental evolution: Vmax fold-change and lag time fold-change.

KIAKRIWKILRRR [PA-13] gave an MIC [1] of 25 µg/mL.
With “p-KKKFK [SLM3, specific palmitic acid-modified 5-mer peptide, composed of L-Lysine and/or L-Phenylalanine, part of a 32-peptide library]” the “Lag time fold-change of evolved strains compared to control strains” value [2] was “significantly increased lag times”.
